Laboratory results taken from the NIST ThermoML archive (doi:10.1007/s10765-009-0566-6).
± gives the expanded uncertainty stated by the source.

Experiment: osmotic coefficient (dimensionless); mn = molality of the nth substance listed, in mol/kg
Conditions: Liquid, vapor pressure osmometry

## CCCCCn1cc[n+](C)c1.[Cl-] [1-methyl-3-pentylimidazolium chloride] + O
298.15 K, m1 = 0.014
  osmotic coefficient: 0.931 ± 0.019
298.15 K, m1 = 0.0263
  osmotic coefficient: 0.889 ± 0.018
298.15 K, m1 = 0.0391
  osmotic coefficient: 0.882 ± 0.018
298.15 K, m1 = 0.0518
  osmotic coefficient: 0.871 ± 0.018
298.15 K, m1 = 0.0634
  osmotic coefficient: 0.863 ± 0.018
298.15 K, m1 = 0.084
  osmotic coefficient: 0.852 ± 0.018
298.15 K, m1 = 0.1007
  osmotic coefficient: 0.841 ± 0.018
298.15 K, m1 = 0.1369
  osmotic coefficient: 0.821 ± 0.018
298.15 K, m1 = 0.1784
  osmotic coefficient: 0.805 ± 0.018
298.15 K, m1 = 0.2198
  osmotic coefficient: 0.797 ± 0.017
298.15 K, m1 = 0.2765
  osmotic coefficient: 0.79 ± 0.017
298.15 K, m1 = 0.3517
  osmotic coefficient: 0.781 ± 0.017
298.15 K, m1 = 0.4043
  osmotic coefficient: 0.768 ± 0.017
298.15 K, m1 = 0.5014
  osmotic coefficient: 0.75 ± 0.017
298.15 K, m1 = 0.5758
  osmotic coefficient: 0.735 ± 0.017
298.15 K, m1 = 0.8464
  osmotic coefficient: 0.722 ± 0.017
298.15 K, m1 = 1.002
  osmotic coefficient: 0.71 ± 0.018
298.15 K, m1 = 1.376
  osmotic coefficient: 0.697 ± 0.018
298.15 K, m1 = 1.797
  osmotic coefficient: 0.687 ± 0.018
308.15 K, m1 = 0.014
  osmotic coefficient: 0.938 ± 0.019
308.15 K, m1 = 0.0263
  osmotic coefficient: 0.905 ± 0.018
308.15 K, m1 = 0.0391
  osmotic coefficient: 0.887 ± 0.018
308.15 K, m1 = 0.0518
  osmotic coefficient: 0.878 ± 0.018
308.15 K, m1 = 0.0634
  osmotic coefficient: 0.868 ± 0.018
308.15 K, m1 = 0.084
  osmotic coefficient: 0.858 ± 0.018
308.15 K, m1 = 0.1007
  osmotic coefficient: 0.845 ± 0.018
308.15 K, m1 = 0.1369
  osmotic coefficient: 0.829 ± 0.018
308.15 K, m1 = 0.1784
  osmotic coefficient: 0.812 ± 0.018
308.15 K, m1 = 0.2198
  osmotic coefficient: 0.803 ± 0.018
308.15 K, m1 = 0.2765
  osmotic coefficient: 0.795 ± 0.017
308.15 K, m1 = 0.3517
  osmotic coefficient: 0.788 ± 0.017
308.15 K, m1 = 0.4043
  osmotic coefficient: 0.78 ± 0.017
308.15 K, m1 = 0.5014
  osmotic coefficient: 0.753 ± 0.017
308.15 K, m1 = 0.5758
  osmotic coefficient: 0.742 ± 0.017
308.15 K, m1 = 0.8464
  osmotic coefficient: 0.726 ± 0.017
308.15 K, m1 = 1.002
  osmotic coefficient: 0.715 ± 0.018
308.15 K, m1 = 1.376
  osmotic coefficient: 0.704 ± 0.018
308.15 K, m1 = 1.797
  osmotic coefficient: 0.691 ± 0.018
318.15 K, m1 = 0.014
  osmotic coefficient: 0.941 ± 0.019
318.15 K, m1 = 0.0263
  osmotic coefficient: 0.911 ± 0.018
318.15 K, m1 = 0.0391
  osmotic coefficient: 0.903 ± 0.018
318.15 K, m1 = 0.0518
  osmotic coefficient: 0.885 ± 0.018
318.15 K, m1 = 0.0634
  osmotic coefficient: 0.878 ± 0.018
318.15 K, m1 = 0.084
  osmotic coefficient: 0.865 ± 0.018
318.15 K, m1 = 0.1007
  osmotic coefficient: 0.854 ± 0.018
318.15 K, m1 = 0.1369
  osmotic coefficient: 0.845 ± 0.018
318.15 K, m1 = 0.1784
  osmotic coefficient: 0.831 ± 0.018
318.15 K, m1 = 0.2198
  osmotic coefficient: 0.822 ± 0.018
318.15 K, m1 = 0.2765
  osmotic coefficient: 0.803 ± 0.018
318.15 K, m1 = 0.3517
  osmotic coefficient: 0.794 ± 0.017
318.15 K, m1 = 0.4043
  osmotic coefficient: 0.784 ± 0.017
318.15 K, m1 = 0.5014
  osmotic coefficient: 0.76 ± 0.017
318.15 K, m1 = 0.5758
  osmotic coefficient: 0.748 ± 0.017
318.15 K, m1 = 0.8464
  osmotic coefficient: 0.735 ± 0.017
318.15 K, m1 = 1.002
  osmotic coefficient: 0.723 ± 0.017
318.15 K, m1 = 1.376
  osmotic coefficient: 0.711 ± 0.018
318.15 K, m1 = 1.797
  osmotic coefficient: 0.697 ± 0.018
328.15 K, m1 = 0.014
  osmotic coefficient: 0.949 ± 0.019
328.15 K, m1 = 0.0263
  osmotic coefficient: 0.923 ± 0.019
328.15 K, m1 = 0.0391
  osmotic coefficient: 0.908 ± 0.018
328.15 K, m1 = 0.0518
  osmotic coefficient: 0.897 ± 0.018
328.15 K, m1 = 0.0634
  osmotic coefficient: 0.886 ± 0.018
328.15 K, m1 = 0.084
  osmotic coefficient: 0.87 ± 0.018
328.15 K, m1 = 0.1007
  osmotic coefficient: 0.866 ± 0.018
328.15 K, m1 = 0.1369
  osmotic coefficient: 0.849 ± 0.018
328.15 K, m1 = 0.1784
  osmotic coefficient: 0.837 ± 0.018
328.15 K, m1 = 0.2198
  osmotic coefficient: 0.828 ± 0.018
328.15 K, m1 = 0.2765
  osmotic coefficient: 0.809 ± 0.018
328.15 K, m1 = 0.3517
  osmotic coefficient: 0.799 ± 0.017
328.15 K, m1 = 0.4043
  osmotic coefficient: 0.79 ± 0.017
328.15 K, m1 = 0.5014
  osmotic coefficient: 0.771 ± 0.017
328.15 K, m1 = 0.5758
  osmotic coefficient: 0.756 ± 0.017
328.15 K, m1 = 0.8464
  osmotic coefficient: 0.739 ± 0.017
328.15 K, m1 = 1.002
  osmotic coefficient: 0.73 ± 0.017
328.15 K, m1 = 1.376
  osmotic coefficient: 0.718 ± 0.017
328.15 K, m1 = 1.797
  osmotic coefficient: 0.704 ± 0.018
